# According to patent publication US20100273876A1, “ANTIBACTERIAL FORMULATION COMPRISING A DIALKYL SULPHOSUCCINATE AND A CARBANILIDE ANTIBACTERIAL AGENT” (priority 2007, published 2010):
# Tests used:
# Strep. mutans ATCC 25175 [1] = assay: MIC assay, liquid medium; type: cell-based, Streptococcus mutans
# Procedure: The S. mutans was cultured and maintained on Wilkins-Chalgren Anaerobe Medium (agar and broth) at pH 7.0 supplemented with 1 g/L glucose; all cultures were incubated at 37° C. for 48 h in an atmosphere containing 5% CO2.
# This is a standard international method for quantitatively assessing the antimicrobial activity of a compound in a liquid medium. The method used a sterile 96-well microtitre plate, capable of holding about 200 μl of liquid per well. The wells contained liquid culture medium and ranges of decreasing concentrations of the relevant test compound in doubling dilutions (eg, 1000, 500, 250, 125 . . . μg/ml, etc. down to 0.49 μg/ml). The culture media were as described above.
# The wells were inoculated with a liquid suspension of freshly grown micro-organism and incubated under the conditions described above. After incubation, the microtitre plate was examined visually (with the aid of a light box) for cloudiness in each well, which would indicate microbial growth. The MIC value was recorded as the lowest concentration of test compound required to inhibit microbial growth, ie, the lowest concentration for which the liquid in the well remained clear.
# The assays included both negative (culture medium with no micro-organisms) and positive (culture medium plus diluting solvent plus micro-organism) controls.
# P. granulosum PRP-005 = assay: Agar dilution MIC assay; type: cell-based, Propionibacterium granulosum; conditions: P. granulosum PRP-005 (MLSK)
# Procedure: (§1) The propionibacteria were cultured and maintained on Wilkins-Chalgren Anaerobe Medium (agar and broth) at pH 6.0; all cultures were incubated anaerobically at 37° C. for 72 hours.
# (§2) This is a standard international method for quantitatively assessing the antimicrobial activity of a compound in a solid medium. The test compound was prepared to 40× the highest concentration required (eg, 10 mg/ml for a final concentration of 250 μg/ml) and a series of doubling dilutions were performed in a suitable solvent. A set amount of these antimicrobial stock solutions was then added to molten agar medium (ca. 55° C.), mixed thoroughly, poured into sterile Petri dishes and allowed to cool/set.
# (§3) A Multipoint™ Inoculator (AQS Manufacturing Ltd, UK) was used to inoculate the plates by spotting the inocula onto the surface of the agar, delivering approximately 1 to 2 μl per spot (yielding 10^5 CFU(colony forming units) per spot).
# (§4) The plate(s) were then incubated under the conditions described above, following which they were examined visually for signs of bacterial growth. The MIC value was ascertained when there was a marked reduction in, or total loss of, growth on the test plate at the lowest concentration as compared to that of the growth on the control plate.
# (§5) The assays were conducted in duplicate and included a positive control (culture medium, diluting solvent and inoculum).
# P. granulosum PRP-055 = assay: Agar dilution MIC assay; type: cell-based, Propionibacterium granulosum; conditions: P. granulosum PRP-055 (resistance None)
# Procedure: as §1, §2, §3, §4, §5
# P. granulosum PRP-043 = assay: Agar dilution MIC assay; type: cell-based, Propionibacterium granulosum; conditions: P. granulosum PRP-043 (MLS)
# Procedure: as §1, §2, §3, §4, §5
# P. granulosum PRP-019 = assay: Agar dilution MIC assay; type: cell-based, Propionibacterium granulosum; conditions: P. granulosum PRP-019 (MLSK)
# Procedure: as §1, §2, §3, §4, §5
# P. granulosum PRP-044 = assay: Agar dilution MIC assay; type: cell-based, Propionibacterium granulosum; conditions: P. granulosum PRP-044 (MLS)
# Procedure: as §1, §2, §3, §4, §5
# P. granulosum NCTC 11865 = assay: Agar dilution MIC assay; type: cell-based, Propionibacterium granulosum; conditions: P. granulosum NCTC 11865 (resistance None)
# Procedure: as §1, §2, §3, §4, §5
# P. granulosum PRP-021 = assay: Agar dilution MIC assay; type: cell-based, Propionibacterium granulosum; conditions: P. granulosum PRP-021 (MLS)
# Procedure: as §1, §2, §3, §4, §5
# P. granulosum PRP-006 = assay: Agar dilution MIC assay; type: cell-based, Propionibacterium granulosum; conditions: P. granulosum PRP-006 (MLS)
# Procedure: as §1, §2, §3, §4, §5
# Strep. mutans ATCC 25175 [2] = assay: MBC assay; type: cell-based, Streptococcus mutans
# Procedure: The S. mutans was cultured and maintained on Wilkins-Chalgren Anaerobe Medium (agar and broth) at pH 7.0 supplemented with 1 g/L glucose; all cultures were incubated at 37° C. for 48 h in an atmosphere containing 5% CO2. This assay, normally carried out after an MIC assay, determines the rnininiurn concentration of a compound that is lethal to the micro-organism being tested. […] These samples were then individually sub-cultured on antibiotic-free agar medium, under the incubation conditions described above. Following incubation they were examined visually for microbial growth.
# C. striatum NCTC 764 = assay: MIC assay, liquid medium; type: cell-based, Corynebacterium striatum
# Procedure: Several Corynebacterium test species were also used in this study, namely C. mucifaciens ATCC 700355, C. striatum NCTC 764, C. xerosis NCTC 11861 and C. jeikeium NCTC 11915. These Gram-positive pathogens are closely related to organisms (aerobic diphtheroids of the genus Corynebacterium) that cause body odour. C. mucifaciens and C. striatum were cultured and maintained on Mueller-Hinton Medium (agar and broth) and were incubated aerobically at 37° C. for 24 hours. C. xerosis and C. jeikeium were cultured and maintained on Mueller-Hinton Medium containing 5% (v/v) lysed horse blood (agar and broth) and were incubated aerobically at 37° C. for 72 hours.
# This is a standard international method for quantitatively assessing the antimicrobial activity of a compound in a liquid medium. The method used a sterile 96-well microtitre plate, capable of holding about 200 μl of liquid per well. […]
# The wells were inoculated with a liquid suspension of freshly grown micro-organism and incubated under the conditions described above. […] The MIC value was recorded as the lowest concentration of test compound required to inhibit microbial growth, ie, the lowest concentration for which the liquid in the well remained clear. […]
# P. acnes PRP-039 = assay: Agar dilution MIC assay; type: cell-based, Propionibacterium acnes; conditions: P. acnes PRP-039 (Tet/MLS)
# Procedure: as §1, §2, §3, §4, §5
# P. acnes PRP-102 = assay: Agar dilution MIC assay; type: cell-based, Propionibacterium acnes; conditions: P. acnes PRP-102 (Tet/MLS)
# Procedure: as §1, §2, §3, §4, §5
# P. acnes PRP-101 = assay: Agar dilution MIC assay; type: cell-based, Propionibacterium acnes; conditions: P. acnes PRP-101 (Tet/MLS)
# Procedure: as §1, §2, §3, §4, §5
# P. acnes PRP-004 = assay: Agar dilution MIC assay; type: cell-based, Propionibacterium acnes; conditions: P. acnes PRP-004 (Tet)
# Procedure: as §1, §2, §3, §4, §5
# P. acnes PRP-023 = assay: Agar dilution MIC assay; type: cell-based, Propionibacterium acnes; conditions: P. acnes PRP-023 (MLSK)
# Procedure: as §1, §2, §3, §4, §5
# P. acnes PRP-046 = assay: Agar dilution MIC assay; type: cell-based, Propionibacterium acnes; conditions: P. acnes PRP-046 (resistance None)
# Procedure: as §1, §2, §3, §4, §5
# P. acnes PRP-008 = assay: Agar dilution MIC assay; type: cell-based, Propionibacterium acnes; conditions: P. acnes PRP-008 (Clin)
# Procedure: as §1, §2, §3, §4, §5
substance,measurement,setting,value
dioctyl sodium sulphosuccinate [DOSS],MIC,Strep. mutans ATCC 25175 [1],15.6 mg/L
same,MIC,P. granulosum PRP-005,15.6 mg/L
same,MIC,P. granulosum PRP-055,31.25 mg/L
same,MIC,P. granulosum PRP-043,31.25 mg/L
same,MIC,P. granulosum PRP-019,15.6 mg/L
same,MIC,P. granulosum PRP-044,31.25 mg/L
same,MIC,P. granulosum NCTC 11865,31.25 mg/L
same,MIC,P. granulosum PRP-021,31.25 mg/L
same,MIC,P. granulosum PRP-006,31.25 mg/L
same,MBC,Strep. mutans ATCC 25175 [2],15.6 mg/L
same,MIC/MBC ratio,Strep. mutans ATCC 25175 [2],1
same,MIC,C. striatum NCTC 764,62.5 mg/L
same,MIC,P. acnes PRP-039,15.6 mg/L
same,MIC,P. acnes PRP-102,31.25 mg/L
same,MIC,P. acnes PRP-101,15.6 mg/L
same,MIC,P. acnes PRP-004,15.6 mg/L
same,MIC,P. acnes PRP-023,15.6 mg/L
same,MIC,P. acnes PRP-046,15.6 mg/L
same,MIC,P. acnes PRP-008,15.6 mg/L
